The results in this text go back to article PMC8954523 (Pharmaceutics, 2022).

The nature of series [1]: Hypothetical transfer thermodynamic functions from solvation functions. The format is physicochemical. Particulars: water → n-hexane.
A short description of series [2]: Transfer thermodynamic functions from distribution experiments (real transfer). The format is physicochemical. The conditions noted are these: 298.15 K. Here is the method: The apparent distribution coefficients were calculated from the molar concentrations of the substance in the phases using the following equation:(10) DCorg/w=C2org/w/C2w/org where DCorg/w is the apparent distribution coefficient, C2org/w and C2w/org are the concentrations (M) of the compound after the distribution in the 1-octanol or n-hexane and water phases, respectively. The apparent distribution coefficients in the mole fraction scale ( DXorg/w ) were calculated by the equation:(11) DXorg/w=X2org/w/X2w/org where X2org/w and X2w/org are the concentrations (mole fract.) of the compound after distribution. The standard Gibbs energy of the transfer ( ΔGtr0) from water to the organic phase was calculated as follows:(12) ΔGtr0=−RT(lnDXorg/w)
The transfer enthalpy ( ΔHtr0) was derived from the temperature dependences of the distribution coefficients by the van’t Hoff approach as:(13) ∂(lnDXorg/w)/∂T=ΔHtr0/RT^2
The standard transfer entropy ( ΔStr0 ) was determined by the equation:(14) ΔGtr0=ΔHtr0−TΔStr0
As follows, additional information on the thermodynamic functions of this parameter (enthalpies and entropies) was obtained from the temperature dependences in order to disclose the transfer (n-hexane → 1-octanol) thermodynamic mechanisms. To this end, the ∆ln DX values (expressed in mole fraction units) characterizing the transfer (n-hexane → 1-octanol) were calculated as ∆ln DX = ln DXoct/w − ln DXhex/w and the respective thermodynamic functions were determined using Equations (12)–(14). The resulting temperature dependences and the contributions of the enthalpy and entropy terms to the free Gibbs energy of the hypothetical and “real” transfers are shown in Figure 5 and Table 6. […] At the same time, the thermodynamic mechanism of the (n-hexane → 1-octanol) transfer differs from the (water → organic solvents) transitions. In particular, the (n-hexane → 1-octanol) transfer process is enthalpy determined (| ΔHtr0 | > | TΔStr0 |) similar to the (water → 1-octanol) one. Nevertheless, TΔStr0 < 0 testifies to the ordering of the system as opposed to water → 1-octanol and water → n-hexane ( TΔStr0 > 0). It can be concluded that the mechanism of the (n-hexane → 1-octanol) transfer is absolutely different from the (water → n-hexane) and partially agrees with the (water → 1-octanol) transition. Importantly, the regularities estimated from the transferring diagram analysis match the results obtained using the Hansen parameters ( Δδt ^water > Δδt ^n-hexane > Δδt ^1-octanol).

The mark [3] stands for this setting: n-hexane → 1-octanol, from Δ lnDX.
Where [4] appears, read: water → 1-octanol, real transfer.
Setting [5] is: water → n-hexane, real transfer.

Values joined by “and” are separate entries in the source; they are usually repeats but may differ in a detail not shown here. Identical values can stand only once.

For the compound `CC(O)(CS(=O)(=O)c1ccc(F)cc1)C(=O)Nc1ccc(C#N)c(C(F)(F)F)c1` (centres unmarked) [BCL, bicalutamide], the ΔGtr in series [1] was −4.8 kJ⋅mol^−1. In addition, in series [2] (1-octanol/n-hexane (n-hexane → 1-octanol), mole fraction scale), the “DXorg/w (Δ lnDX parameter line)” value is recorded as 425.33. For the same compound, in series [2] (setting [3]), the TΔStr0 was -4.18 kcal/mol, the ΔGtr0 is -3.59 ± 0.096 kcal/mol, the ΔHtr0 is -7.77 ± 0.382 kcal/mol and the ΔStr0 was −58.7 ± 4.1 J⋅mol^−1⋅K^−1. In series [2] (setting [4]), the TΔStr0 was 1.55 kcal/mol; the ΔGtr0 was -5.14 kcal/mol and -5.14 ± 0.096 kcal/mol; the ΔHtr0 is -3.59 ± 0.048 kcal/mol; the ΔStr0 stood at 21.8 ± 0.7 J⋅mol^−1⋅K^−1. Further, in series [2] (setting [5]), the TΔStr0 was 5.76 kcal/mol; the ΔGtr0 is -1.55 kcal/mol and -1.55 ± 0.048 kcal/mol; the ΔHtr0 came to 4.21 ± 0.43 kcal/mol; the ΔStr0 was determined as 80.8 ± 9.9 J⋅mol^−1⋅K^−1.
